Experimental data: article PMC12040169 (PLOS Biology, 2025)

Experiment: in vitro
Details: human, hela cells, % viability

| Structure (SMILES) | viability at 28.5 h, 10 µM [%] |
| --- | --- |
| COc1cc(CNC(=O)c2cncc(-c3ccc(C(=O)N4CCOCC4)cc3)c2)cc(OC)c1OC [CBK158632] | 114 |
| CCOC(=O)CCNC(=O)c1cncc(-c2ccc(C(=O)N3CCOCC3)cc2)c1 [CBK158645] | 92.6 |
| CCCC1CCN(CC2C=Cc3cc(-c4ccc(S(C)(=O)=O)cc4)ccc3O2)CC1 (stereo not shown) [CBK158647] | 86.2 |
| CCc1ccc(CNC(=O)Cn2cnc(-c3ccc(CN4CCC(C)CC4)cc3)c2)cc1 [CBK158710T] | 100 |
| Cc1onc(-c2ccccc2)c1C(=O)N1CCC(C(N)=O)CC1 [CBK158721] | 84.4 |
| CCN(CC)C(=O)CN(CCc1ccc(OC)c(OC)c1)C(=O)NCCN1CCOCC1 [CBK158734] | 93.1 |
| CCN(CC)C(=O)CN(CCc1ccc(OC)c(OC)c1)C(=O)NCc1ccc(Cl)cc1 [CBK158742] | 110 |
| COc1ccc(CCN(Cc2ccc(Cl)c(Cl)c2)C(=O)Nc2cccnc2)cc1OC [CBK158797] | 96.1 |
| CCN(CC)CCN(C(=O)NCCCSC)C(C)c1ccc(OC)c(OC)c1 (stereo not shown) [CBK158803] | 94.3 |
| CC(=O)Nc1ccc(-c2ccc(C(=O)NCc3cccnc3)cn2)cc1 [CBK158842] | 96.9 |
| CCN(CC)C(=O)c1ccc(-c2ccc(NC(C)=O)cc2)nc1 [CBK158850] | 101 |
| COc1cc(CNC(=O)c2ccc(-c3ccc(NC(C)=O)cc3)nc2)cc(OC)c1OC [CBK158851] | 100 |
| CC(=O)Nc1ccc(-c2ccc(C(=O)NC3CC3)cn2)cc1 [CBK158854] | 84.9 |
| CC(=O)Nc1ccc(-c2ccc(C(=O)NCc3ccc(C(C)C)cc3)cn2)cc1 [CBK158857] | 101 |
| CC(=O)Nc1ccc(-c2ccc(C(=O)NCc3ccc(S(C)(=O)=O)cc3)cn2)cc1 [CBK158860] | 92.1 |
| CCOC(=O)N1CCC(NC(=O)N(Cc2cccnc2)Cc2ccc3c(c2)OCO3)CC1 [CBK158897] | 95.4 |
| CSCCCNC(=O)N1CCN(CCc2ccccc2)CC1 [CBK158900] | 81.6 |
| O=C(NCCN1CCOCC1)N1CCN(CCc2ccccc2)CC1 [CBK158908] | 85.5 |
| COc1cc(CNC(=O)N2CCN(CCc3ccccc3)CC2)cc(OC)c1OC [CBK158910] | 91.8 |
| NC(=O)c1ccc(NC(=O)N2CCN(CCc3ccccc3)CC2)cc1 [CBK158924] | 95.3 |
| COc1cc(NC(=O)N2CCN(CCc3ccccc3)CC2)cc(OC)c1OC [CBK158933] | 100 |
| O=C(NC1CCc2ccccc21)N1CCN(CCc2ccccc2)CC1 (stereo not shown) [CBK158936] | 96.1 |

| Structure (SMILES) | viability at 28.5 h, 10 µM [%] |
| --- | --- |
| CCOC(=O)N1CCC(NC(=O)N2CCN(CCc3ccccc3)CC2)CC1 [CBK158938] | 89.8 |
| CCN(CC)CCN(C(=O)NCCc1c[nH]c2ccc(OC)cc12)C(C)c1ccc(OC)c(OC)c1 (stereo not shown) [CBK158948] | 90.4 |
| COc1ccc(C(C)N(CCN2CCOCC2)C(=O)NCc2cccc3ccccc23)cc1OC (stereo not shown) [CBK158984] | 96.4 |
| CCN(CC)CCN(Cc1ccc2c(c1)OCO2)C(=O)Nc1ccc2[nH]ccc2c1 [CBK159037] | 96.7 |
| COc1ccc(CN(CCCN2CCOCC2)C(=O)NCc2ccc(C#N)cc2)cc1OC [CBK159125] | 89 |
| CCN(CC)c1ccc(NC(=O)N(CCCN2CCOCC2)Cc2ccc(OC)c(OC)c2)cc1 [CBK159168] | 91.1 |
| COc1ccc(CN(CCN(C)C)C(=O)NCc2ccc(Cl)cc2)cc1OC [CBK159303] | 87.7 |
| CCN(CC)c1ccc(CN(CCCN(C)C)C(=O)NCC2CCCCC2)cc1 [CBK159392] | 106 |
| O=C(NCc1ccc(Cl)cc1)N(Cc1cccnc1)Cc1ccc2c(c1)OCO2 [CBK159449] | 97 |
| O=C(NCc1c(Cl)cccc1Cl)N(Cc1cccnc1)Cc1ccc2c(c1)OCO2 [CBK159450] | 96.8 |
| COc1ccc(CNC(=O)N(Cc2cccnc2)Cc2ccc3c(c2)OCO3)cc1OC [CBK159456] | 87.3 |
| COc1ccc(-c2csc(CC(=O)O)n2)cc1 [CBK159469] | 85.4 |
| COc1cc(C)ccc1S(=O)(=O)Nc1cccc2cc[nH]c12 [CBK159511] | 81.8 |
| O=S(=O)(Nc1cccc2cc[nH]c12)c1ccc(Br)cc1C(F)(F)F [CBK159519] | 88.5 |
| CS(=O)(=O)Nc1ccc2c(ccn2Cc2ccccc2)c1 [CBK159527] | 104 |
| O=S(=O)(Nc1ccc2c(ccn2Cc2ccccc2)c1)c1cc(C(F)(F)F)cc(C(F)(F)F)c1 [CBK159540] | 94.7 |
| Cn1cnc(S(=O)(=O)Nc2cccc3cc[nH]c23)c1 [CBK159554] | 94 |
| CCc1c(C)nc2c(NC(C)=O)cccc2c1SCCC(=O)O [CBK159594T] | 106 |
| O=C(Nc1ccc2[nH]ccc2c1)c1ccc(Cl)cc1 [CBK159668] | 98.4 |
| O=C(Nc1ccc2[nH]ccc2c1)c1ccc(Br)cc1Cl [CBK159679] | 106 |
| O=C(Cc1cc(F)c(F)c(F)c1)Nc1ccc2[nH]ccc2c1 [CBK159684] | 91.7 |
| O=C(COc1ccc(F)cc1)Nc1ccc2[nH]ccc2c1 [CBK159689] | 98.6 |

| Structure (SMILES) | viability at 28.5 h, 10 µM [%] |
| --- | --- |
| CN(C)CCCC(=O)Nc1ccc2[nH]ccc2c1 [CBK159698] | 114 |
| CN1CCC[C@H]1C(=O)Nc1ccc2[nH]ccc2c1 [CBK159699] | 97.6 |
| O=C(Cc1ccc(Cl)c(Cl)c1)NCCc1c[nH]c2ccc(Cl)cc12 [CBK159749] | 100 |
| O=C(NCCc1c[nH]c2ccc(Cl)cc12)c1ccc(Cl)cc1Cl [CBK159750] | 105 |
| O=C(Cc1cc(Cl)ccc1C(F)(F)F)NCCc1c[nH]c2ccc(Cl)cc12 [CBK159759] | 80.2 |
| O=C(NCCc1c[nH]c2ccc(Cl)cc12)c1ccc(Br)cc1Cl [CBK159762] | 89.1 |
| O=C(Cc1cc(F)c(F)c(F)c1)NCCc1c[nH]c2ccc(Cl)cc12 [CBK159768] | 112 |
| NS(=O)(=O)c1ccc(C(=O)NCCc2c[nH]c3ccc(Cl)cc23)cc1 [CBK159780] | 95.2 |
| O=C(NCCc1c[nH]c2ccc(Cl)cc12)c1ccoc1 [CBK159782] | 97.9 |
| O=C(Cc1ccc(Cl)cc1Cl)Nc1ccc2ncccc2c1 [CBK159787] | 91.5 |
| O=C(Nc1ccc2ncccc2c1)c1ccc(Cl)cc1Cl [CBK159793] | 96.5 |
| O=C(Cc1cc(Cl)ccc1C(F)(F)F)Nc1ccc2ncccc2c1 [CBK159802] | 94.7 |
| O=C(Cc1cc(F)c(F)c(F)c1)Nc1ccc2ncccc2c1 [CBK159811] | 93 |
| Cc1cc(Br)ccc1C(=O)Nc1ccc2ncccc2c1 [CBK159814] | 92.1 |
| O=C(Nc1ccc2ncccc2c1)c1ccc(OC(F)(F)F)cc1 [CBK159815] | 90.9 |
| O=C(COc1ccc(F)cc1)Nc1ccc2ncccc2c1 [CBK159816] | 85.7 |
| CSCCC(=O)Nc1ccc2ncccc2c1 [CBK159818] | 87.2 |
| O=C(Nc1ccc2ncccc2c1)c1cccnc1 [CBK159820] | 94.1 |
| CN(C)CCCC(=O)Nc1ccc2ncccc2c1 [CBK159824] | 83.4 |
| O=C(Nc1cccc(C(F)(F)F)c1)c1c(O)c2ccccc2[nH]c1=O [CBK159985] | 93.2 |
| CC(C)c1c(O)c2ccccc2[nH]c1=O [CBK159988] | 89.4 |
| Cc1ccc2c(O)c(C(=O)NCc3cccs3)cnc2c1 [CBK159997] | 78.2 |

| Structure (SMILES) | viability at 28.5 h, 10 µM [%] |
| --- | --- |
| O=C(Cc1c[nH]cn1)Nc1ccc2cc[nH]c2c1 [CBK160059] | 95.1 |
| O=C(Nc1cccc2cc[nH]c12)c1cc(F)cc(Cl)c1 [CBK160075] | 88.8 |
| O=C(Nc1cccc2cc[nH]c12)c1cc(F)c(Cl)cc1F [CBK160080] | 82.4 |
| O=C(Cc1c[nH]cn1)Nc1cccc2cc[nH]c12 [CBK160097] | 86.2 |
| O=C(c1ccc(F)cc1)C1CCN(C(=O)c2cccnc2NCc2ccc3c(c2)OCO3)CC1 [CBK160114] | 113 |
| CC(C)(C)OC(=O)NCCNC(=O)c1cccnc1NCc1ccc2c(c1)OCO2 [CBK160117] | 104 |
| CCOC(=O)c1[nH]c2ccccc2c1NC(=O)c1c(F)ccc(Cl)c1F [CBK160141] | 120 |
| CCOC(=O)c1[nH]c2ccccc2c1NC(=O)c1cc(F)cc(Cl)c1 [CBK160143] | 95.4 |
| CCOC(=O)c1[nH]c2ccccc2c1NC(=O)c1ccc(Cl)c(C)c1 [CBK160146] | 87 |
| CCOC(=O)c1[nH]c2ccccc2c1NC(=O)c1ccc(Br)cc1Cl [CBK160147] | 91.3 |
| CCOC(=O)c1[nH]c2ccccc2c1NC(=O)c1ccc(OC(F)(F)F)cc1 [CBK160157] | 87.8 |
| CCOC(=O)c1[nH]c2ccccc2c1NC(=O)CN1C(=O)CSC1=O [CBK160163] | 102 |
| CCOC(=O)c1[nH]c2ccccc2c1NC(=O)c1ccoc1 [CBK160169] | 107 |
| CCOC(=O)c1[nH]c2ccccc2c1NC(=O)[C@@H]1CCCN1C [CBK160171T] | 84.9 |
| O=C(O)c1ccc(-c2ccc(OC(F)(F)F)cc2)nc1 [CBK160173T] | 90.6 |
| COC(=O)c1ccc(-c2ccc3[nH]ccc3c2)nc1 [CBK160174T] | 89.1 |
| COC(=O)c1ccc(-c2ccc(OC)c(OC)c2)nc1 [CBK160175T] | 98.7 |
| CC(=O)Nc1ccc(-c2ccc(C(=O)N3CCN(C(=O)c4ccco4)CC3)cn2)cc1 [CBK160186] | 85.8 |
| Nc1ncc(-c2ccc(C(=O)N3CCOCC3)cc2)cc1C(=O)Nc1ccncc1 [CBK160202] | 93.6 |
| COc1cccc(NC(=O)c2cc(-c3ccc(C(=O)N4CCOCC4)cc3)cnc2N)c1 [CBK160203] | 89.4 |
| CC(=O)N1CCc2ccc(NC(=O)c3cc(-c4ccc(C(=O)N5CCOCC5)cc4)cnc3N)cc21 [CBK160205] | 89.9 |

Same assay, conditions: human, hela cells, % viability, bulk resorufin, single well

| Structure (SMILES) | viability at 28.5 h, 10 µM [%] |
| --- | --- |
| CC(C)(C)OC(=O)N1CCC2(CC1)OCc1cc(-c3ccc(S(C)(=O)=O)nc3)ccc1O2 [CBK159619] | 83.6 |
